Test results from PMC2747021, “Synergistic Antibacterial and Anti-Inflammatory Activity of Temporin A and Modified Temporin B In Vivo” (PLoS ONE, 2009).
No end group written: not given here.

Key:
[1] = system: Salmonella enterica serovar Paratyphi; assay: Antibacterial activity, MIC100 broth dilution; type: cell-based; details: single peptide; MIC100, MH broth, about 10^6 CFU/ml, 37°C 20 h, absorbance 600 nm, triplicate
gram positive bacteria = assay: Antibacterial activity, summary for gram positive bacteria; type: cell-based; details: for antimicrobial activity against gram positive bacteria: in words, approximately to the same extent as temporin A, data not shown
Description: The study included the following species: Staphylococcus aureus (isolate A170, A172, 007), Listeria monocytogenes, Salmonella enterica serovar Paratyphi, Salmonella enterica serovar Typhimurium, Escherichia coli. Isolates were obtained from patients hospitalized at the Medical School of the University of Naples. Specimen were confirmed by PCR assay of the genes sea (S. aureus), MonoA (L. monocytogenes), abe (S. enterica serovar Paratyphi), FliC (S. enterica serovar Typhimurium), sat (E. coli) [20]–[23]. Bacteria were grown at 37°C in TSB medium (S. aureus and L. monocytogenes) or LB medium (the remaining bacterial species) (Difco, Becton Dickinson, Sparks, MD), harvested while in exponential phase (OD600 nm; 0-6-0.8), centrifuged (8×10^3 g for 10 min), washed with saline (0.15 M NaCl) and resuspended in saline (10^6–10^7 CFU/ml).
Bacteria were grown at 37°C in TSB (S. aureus and L. monocytogenes) or in LB medium (the remaining bacterial species), harvested while in exponential phase (OD600 nm; 0-6-0.8), centrifuged (8×10^3 g for 10 min), washed with saline, resuspended in Muller Hinton (MH) broth at the concentration of approximately 10^6 CFU/ml and distributed, in triplicate, into 96 well plates (60 µl/well), mixed with twofold dilutions of the antimicrobial (TA: 5–100 µg, 40 µl/well; TB-YK: 4–100 µg, 40 µl/well; TA 5 µg+TB-YK 8 µg, 40 µl/well and incubated at 37°C for 20 h. The minimal concentration of the antimicrobial at which 100% inhibition of growth was observed (MIC100) was determined by measuring the absorbance at 600 nm (Biorad microplate reader model 680, Hercules, CA). The antibacterial activity was measured by spotting an aliquot (10 µl) of each well on TSA or LB agar and counting the CFU. A potential synergism between temporins was evaluated by adding combinations of two temporins in a serial twofold dilutions (TA: 5–100 µg;TB-YK: 4–100 µg; 40 µl/well) to wells containing 10^5 CFU/well in 60 µl. The presence of synergism was established as described.

[2] = system: Staphilococcus.aureus A170; details: single peptide; MIC100, MH broth, about 10^6 CFU/ml, 37°C 20 h, absorbance 600 nm, triplicate
[3] = system: Staphilococcus .aureus A172; details: 20 h
[4] = system: Staphilococcus aureus 007; details: 20 h
Listeria monocytogenes = details: 20 h
Escherichian coli = details: 20 h
gram negative bacteria = details: for antimicrobial activity against gram negative bacteria: in words, data not shown

Substance	MIC [1]	MIC (gram positive bacteria; range over the gram positive bacteria tested)	MIC [2]	MIC [3]	MIC [4]	MIC (Listeria monocytogenes)	MIC (Escherichian coli)	MIC (gram negative bacteria; 20 h)	antimicrobial activity against gram positive bacteria (gram positive bacteria)	antimicrobial activity against gram negative bacteria (gram negative bacteria)
FLPLIGRVLSGIL-NH2 [TA, temporin A]	400 µg/mL	10 to 30 µg/mL	10 µg/mL	20 µg/mL	10 µg/mL	30 µg/mL	125 µg/mL	125 to 400 µg/mL	–	–
H-LLPI VGNLLKSLL- NH2 [TB, temporin B]	–	–	–	–	–	–	–	–	active	totally inactive
H-YLLPI VGNLLKSLL- NH2 [TB-Y]	–	–	–	–	–	–	–	–	active	totally inactive
